Like-named read-outs stand apart in the source and are kept apart here.
How the values were obtained:
[1] = test system: clinically isolated P. aeruginosa strains; assay: checkerboard method, gemifloxacin or ciprofloxacin with ceftazidime, 6 clinical isolates (Example 5); format: cell-based, Pseudomonas aeruginosa; settings: for FICB: FIC of ceftazidime; for MIC: Pseudomonas aeruginosa
Experimental: (§1) Minimal inhibitory concentrations (MICs) for each separate drug were determined. For wells along the growth-no growth interface, synergy was determined by calculating the Fractional Inhibitory Concentration (FIC) index. The Fractional Inhibitory Concentration (FIC) indices were calculated using the following formula: FICindex=FICA+FICB=[A]/MICA+[B]/MICB • Wherein: • FICA(or B), is the FIC of drug A (or B) MICA (or B) is the MIC of the organism to drug A (or B) • A (or B) is concentration of drug A (or B) that is the lowest inhibitory concentration
(§2) The FIC indices were interpreted using the following criteria: • ≦0.5=Synergy • >0.5–1.0=Additive • >1.0–4.0=Indifference • >4.0=Antagonism
(§3) The test organisms were clinical isolates collected in Korea. Organisms were frozen at −70 C. prior to testing. […] Gemifloxacin or ciprofloxacin solution was dispensed alone in the first row and combined with ceftazidime in the remaining rows. Ceftazidime as also dispensed alone in the first row in the first column. Test strains of P. aeruginosa were grown for 18 h in Mueller-Hinton broth, and then these overnight cultures were diluted with the same fresh medium to the density of approximately 10^7 CFU/mL. The bacterial concentrations were determined by measuring optical density or turbidity of the suspension and were verified by standard colony counts on antibiotic-free agar plates. A diluted bacterial solution was applied to 96-well plates containing serially diluted antimicrobial agents to yield 5×10^5 CFU/mL. Plates were incubated at 35 C for 18 hours.
MICs for each separate drug were determined, and for wells along the growth-no growth interface, synergy was determined by calculating FIC Indices as in Example 4. FIC Indices were calculated and interpreted as in Example 4.

[2] = test system: clinically isolated P. aeruginosa; assay: checkerboard titration, gemifloxacin or ciprofloxacin with ceftazidime, 27 clinical isolates (Example 4); format: cell-based, Pseudomonas aeruginosa; settings: for FICB: FIC of ceftazidime; for MIC: Pseudomonas aeruginosa
Experimental: as §3, with “C” for “C.”, “testing. Testing was done by the checkerboard method in 96-well plates using Mueller-Hinton broth.” for “testing.”, “Ceftazidime” for “Gemifloxacin or ciprofloxacin solution”, “was” for “was dispensed alone in the first row and combined with ceftazidime in the remaining rows. Ceftazidime as”, “10^4 CFU per spot.” for “5×10^5 CFU/mL.”, “aerobically overnight.” for “at 35 C for 18 hours.”
as §1, §2

S. saprophyticus 662 = assay: checkerboard titration, gemifloxacin and amoxicillin (MIC, FIC); format: cell-based, Staphylococcus saprophyticus
Experimental: The concentration range tested varied for each drug/organism combination to encompass the MIC endpoints of the individual components. […] The last well (H) in column 12 was used as a positive growth control well, containing only medium and test isolate.
The bacteria were diluted to a 0.5 McFarland standard and then further diluted 1/50. Each well was inoculated with 25 μl of the isolate to give a final inoculum density of approximately 5×10^5 cfu/ml. […] After inoculation, the plates were covered with a 96 well microtitre plate lid and incubated at 35° C. in ambient air for 20–24 hours. A 10 μl aliquot of the inoculum was plated on trypticase soy agar containing 5% sheep blood to determine the purity of the final test inoculum.
2) S. saprophyticus 662 was obtained from the SmithKline Beecham Anti-Infectives Research Culture Collection and stored at −80° C. in 10% glycerol. Before testing, the isolate was passaged onto agar plates (trypticase soy agar containing 5% sheeps blood) from the frozen stock for two consecutive days. Cation adjusted Mueller Hinton broth (BBL, Cockeysville, Md.) was used for the isolate.
The combined effect of gemifloxacin and amoxicillin was investigated in S. saprophyticus 662 by using the checkerboard titration method described in Example 1.

E. faecalis ATCC 29212 = assay: checkerboard titration, gemifloxacin and cefotaxime (MIC, FIC); format: cell-based, Enterococcus faecalis
Experimental: 1) The combined effect of gemifloxacin and cefotaxime was investigated in E. faecalis by using a checkerboard titration method. Evaluation for synergistic activity was carried out by calculation of fractional inhibitory concentrations (FICs) according to the method of Eliopoulos et al (1996, Antimicrobial Combinations, Antibiotics in Laboratory Medicine, Victor Lorian, 4th Edition, pp 337–338, Baltimore, Md., Williams and Wilkins).
(§4) E. faecalis ATCC 29212 was obtained from the SmithKline Beecham Anti-Infectives Research Culture Collection and stored at −80° C. in 10% glycerol. Before testing, the isolate was passaged onto agar plates (trypticase soy agar containing 5% sheeps blood) from the frozen stock for two consecutive days. Cation adjusted Mueller Hinton broth (BBL, Cockeysville, Md.) was used for the isolate.
(§5) Checkerboard microtitre broth dilution plates were prepared using the Hamilton MicroLab AT Plus system (Reno, Nev.). Two-fold serial dilutions (50 μl) of cefotaxime were made in columns 1 through 11 of a microtitre plate. Two-fold serial dilutions of gemifloxacin were prepared manually and the MicroLab AT Plus was used to dispense 25 μl of gemifloxacin at each concentration into rows A through G of the microtitre plate. The concentration range tested varied for each drug/organism combination to encompass the MIC endpoints of the individual components. Column 12 contained two fold serial dilutions of gemifloxacin only, and row H contained two fold serial dilutions of cefotaxie only. The last well (H) in column 12 was used as a positive growth control well, containing only medium and test isolate.
(§6) The bacteria were diluted to a 0.5 McFarland standard and then further diluted 1/50. Each well was inoculated with 25 μl of the isolate to give a final inoculum density of approximately 5×10^5 cfu/ml. The MicroLab AT Plus 2 was used to add the inoculum to the microtitre plates. After inoculation, the plates were covered with a 96 well microtitre plate lid and incubated at 35° C. in ambient air for 20–24 hours. A 10 μl aliquot of the inoculum was plated on trypticase soy agar containing 5% sheep blood to determine the purity of the final test inoculum.
(§7) Following incubation, a microtitre mirror reader (Cooke Instruments Ltd., England) was used to assist in determining the microdilution MIC endpoints. The MIC was determined as the lowest concentration of compound that inhibited visible growth of the organism.
(§8) The Fractional Inhibitory Concentrations (FICs) were calculated using the following formula: (A)/(MICA)+(B)/(MICB)=FICA+FICB=FICIndex wherein: • A is the MIC of drug A in the presence of drug B • B is the MIC of drug B in the presence of drug A • MIC A is the MIC of the organism to drug A alone • MIC B is the MIC of the organism to drug B alone • FIC A is the fractional inhibitory concentration of drug A • FIC B is the fractional inhibitory concentration of drug B
(§9) The FIC indices were interpreted using the following criteria: • ≦0.5=Synergy • >0.5–1=Additive • >1–2=Indifference • >2=Antagonism

E. coli ATCC 25922 = assay: checkerboard titration, gemifloxacin and cefaclor (MIC, FIC); format: cell-based, Escherichia coli
Experimental: as §5, §6, §7, §8, §9
as §4, with “3) E.” for “E.”, “coli” for “faecalis”, “25922” for “29212”, “Cation adjusted Mueller Hinton broth (BBL, Cockeysville, Md.) was used for the isolate.” left out
The combined effect of gemifloxacin and cefaclor was investigated in E. coli ATCC 25922 by using the checkerboard titration method described in Example 1. FIC Indices were calculated and interpreted as in Example 1.

[3] = drug alone, no unit in this line (other lines μg/ml)

CC(C)(O/N=C(\C(=O)N[C@@H]1C(=O)N2C(C(=O)[O-])=C(C[n+]3ccccc3)CS[C@H]12)c1csc(N)n1)C(=O)O [ceftazidime]
FICB ([1]; P. aeruginosa 6140): 0.25
FICB ([1]; P. aeruginosa 6168): 0.06
FICB ([1]; P. aeruginosa P003): 0.06
MIC ([1]; P. aeruginosa 6140, drug alone, read-out: ceftazidime MIC): 32 µg/mL
MIC ([1]; P. aeruginosa 6140, in combination with gemifloxacin, read-out: Cceftazidime MIC): 8 µg/mL
MIC ([1]; P. aeruginosa 6168, drug alone, read-out: ceftazidime MIC): 32 µg/mL
MIC ([1]; P. aeruginosa 6168, in combination with gemifloxacin, read-out: Cceftazidime MIC): 2 µg/mL
MIC ([1]; P. aeruginosa P003, drug alone, read-out: ceftazidime MIC): 32 µg/mL
MIC ([1]; P. aeruginosa P003, in combination with gemifloxacin, read-out: Cceftazidime MIC): 2 µg/mL
FICB ([2]; P. aeruginosa 6003): 0.25
FICB ([2]; P. aeruginosa 6021): 0.25
FICB ([2]; P. aeruginosa 6030): 0.25
FICB ([2]; P. aeruginosa 6045): 0.13
FICB ([2]; P. aeruginosa 6047): 0.03
FICB ([2]; P. aeruginosa 6113): 0.25
FICB ([2]; P. aeruginosa 6123): 0.25
FICB ([2]; P. aeruginosa 6173): 0.25
FICB ([2]; P. aeruginosa P032): 0.25
FICB ([2]; P. aeruginosa P036): 0.13
FICB ([2]; P. aeruginosa P039): 0.25
MIC ([2]; P. aeruginosa 6003, drug alone, read-out: ceftazidime MIC): 4 µg/mL
MIC ([2]; P. aeruginosa 6003, in combination with gemifloxacin, read-out: Cceftazidime MIC): 1 µg/mL
MIC ([2]; P. aeruginosa 6021, drug alone, read-out: ceftazidime MIC): 4 µg/mL
MIC ([2]; P. aeruginosa 6021, in combination with gemifloxacin, read-out: Cceftazidime MIC): 1 µg/mL
MIC ([2]; P. aeruginosa 6030, drug alone, read-out: ceftazidime MIC): 4 µg/mL
MIC ([2]; P. aeruginosa 6030, in combination with gemifloxacin, read-out: Cceftazidime MIC): 1 µg/mL
MIC ([2]; P. aeruginosa 6045, drug alone, read-out: ceftazidime MIC): 64 µg/mL
MIC ([2]; P. aeruginosa 6045, in combination with gemifloxacin, read-out: Cceftazidime MIC): 8 µg/mL
MIC ([2]; P. aeruginosa 6047, drug alone, read-out: ceftazidime MIC): 64 µg/mL
MIC ([2]; P. aeruginosa 6047, in combination with gemifloxacin, read-out: Cceftazidime MIC): 2 µg/mL
MIC ([2]; P. aeruginosa 6113, drug alone, read-out: ceftazidime MIC): 8 µg/mL
MIC ([2]; P. aeruginosa 6113, in combination with gemifloxacin, read-out: Cceftazidime MIC): 2 µg/mL
MIC ([2]; P. aeruginosa 6123, drug alone, read-out: ceftazidime MIC): 4 µg/mL
MIC ([2]; P. aeruginosa 6123, in combination with gemifloxacin, read-out: Cceftazidime MIC): 1 µg/mL
MIC ([2]; P. aeruginosa 6173, drug alone, read-out: ceftazidime MIC): 4 µg/mL
MIC ([2]; P. aeruginosa 6173, in combination with gemifloxacin, read-out: Cceftazidime MIC): 1 µg/mL
MIC ([2]; P. aeruginosa P032, drug alone, read-out: ceftazidime MIC): 4 µg/mL
MIC ([2]; P. aeruginosa P032, in combination with gemifloxacin, read-out: Cceftazidime MIC): 1 µg/mL
MIC ([2]; P. aeruginosa P036, drug alone, read-out: ceftazidime MIC): 32 µg/mL
MIC ([2]; P. aeruginosa P036, in combination with gemifloxacin, read-out: Cceftazidime MIC): 4 µg/mL
MIC ([2]; P. aeruginosa P039, drug alone, read-out: ceftazidime MIC): 8 µg/mL
MIC ([2]; P. aeruginosa P039, in combination with gemifloxacin, read-out: Cceftazidime MIC): 2 µg/mL

CC1(C)S[C@@H]2[C@H](NC(=O)[C@H](N)c3ccc(O)cc3)C(=O)N2[C@H]1C(=O)O [amoxicillin]
MIC (S. saprophyticus 662; Staphylococcus saprophyticus, 662, in presence of gemifloxacin 0.004 μg/ml, read-out: amoxicillin MIC): 0.125 µg/mL

CO/N=C(\C(=O)N[C@@H]1C(=O)N2C(C(=O)O)=C(COC(C)=O)CS[C@H]12)c1csc(N)n1 [cefotaxime]
amoxicillin MIC (S. saprophyticus 662; [3]): 0.5
MIC (E. faecalis ATCC 29212; Enterococcus faecalis, ATCC29212, in presence of gemifloxacin 0.008 μg/ml, read-out: cefotaxime MIC): 16 µg/mL
cefotaxime MIC (E. faecalis ATCC 29212; [3]): 256

N[C@@H](C(=O)N[C@@H]1C(=O)N2C(C(=O)O)=C(Cl)CS[C@H]12)c1ccccc1 [cefaclor]
MIC (E. coli ATCC 25922; Escherichia coli, ATCC25922, in presence of gemifloxacin 0.002 μg/ml, read-out: cefaclor MIC): 1 µg/mL
cefaclor MIC (E. coli ATCC 25922; [3]): 4
